What follows are compounds tested against T1, PI3Kγ (recombinant p101/p110γ protein) (Homo sapiens, UniProt P48736) (assay: PI3Kγ In Vitro Kinase Assay). Details: purified recombinant p101/p110γ with G protein β1/γ2 subunits; 20 μM ATP, [γ-32P-ATP]; 25 μM PIP2 lipid micelles; 20 minutes at room temperature.
T1 construct: HA; made in house; host or cells: Spodoptera frugiperda (Sf9) cells, baculovirus co-infection
T1 sequence (P48736 whole entry, species assumed): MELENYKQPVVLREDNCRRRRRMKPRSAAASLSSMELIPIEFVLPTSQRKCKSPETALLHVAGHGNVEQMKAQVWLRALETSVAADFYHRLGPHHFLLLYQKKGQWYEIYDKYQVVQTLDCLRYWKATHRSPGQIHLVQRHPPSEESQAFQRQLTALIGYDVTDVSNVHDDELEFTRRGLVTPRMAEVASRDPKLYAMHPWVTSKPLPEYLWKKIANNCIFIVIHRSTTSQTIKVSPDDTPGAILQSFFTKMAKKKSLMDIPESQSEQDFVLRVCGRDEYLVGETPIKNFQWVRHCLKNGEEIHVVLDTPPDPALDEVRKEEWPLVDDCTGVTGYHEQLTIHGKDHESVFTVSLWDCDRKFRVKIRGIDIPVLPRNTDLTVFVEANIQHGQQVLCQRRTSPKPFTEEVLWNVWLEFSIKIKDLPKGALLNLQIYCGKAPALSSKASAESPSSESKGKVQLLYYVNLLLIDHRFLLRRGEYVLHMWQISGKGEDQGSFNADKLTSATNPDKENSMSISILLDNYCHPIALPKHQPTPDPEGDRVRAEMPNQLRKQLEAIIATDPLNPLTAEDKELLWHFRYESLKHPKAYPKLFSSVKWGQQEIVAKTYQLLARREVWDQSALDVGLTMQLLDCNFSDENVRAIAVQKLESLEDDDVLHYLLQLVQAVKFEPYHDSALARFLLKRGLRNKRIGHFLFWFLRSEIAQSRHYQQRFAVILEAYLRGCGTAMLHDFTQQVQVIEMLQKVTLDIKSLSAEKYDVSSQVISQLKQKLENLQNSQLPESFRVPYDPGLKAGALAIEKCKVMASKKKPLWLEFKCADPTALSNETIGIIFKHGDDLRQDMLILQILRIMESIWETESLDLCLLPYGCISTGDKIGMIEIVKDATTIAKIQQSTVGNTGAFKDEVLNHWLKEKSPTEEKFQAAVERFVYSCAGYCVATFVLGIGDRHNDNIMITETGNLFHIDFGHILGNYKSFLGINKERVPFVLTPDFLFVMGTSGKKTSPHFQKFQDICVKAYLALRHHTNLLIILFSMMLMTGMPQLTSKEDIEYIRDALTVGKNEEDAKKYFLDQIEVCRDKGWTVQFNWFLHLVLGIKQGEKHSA
T1 sequence (Q8WYR1 whole entry partner, species assumed): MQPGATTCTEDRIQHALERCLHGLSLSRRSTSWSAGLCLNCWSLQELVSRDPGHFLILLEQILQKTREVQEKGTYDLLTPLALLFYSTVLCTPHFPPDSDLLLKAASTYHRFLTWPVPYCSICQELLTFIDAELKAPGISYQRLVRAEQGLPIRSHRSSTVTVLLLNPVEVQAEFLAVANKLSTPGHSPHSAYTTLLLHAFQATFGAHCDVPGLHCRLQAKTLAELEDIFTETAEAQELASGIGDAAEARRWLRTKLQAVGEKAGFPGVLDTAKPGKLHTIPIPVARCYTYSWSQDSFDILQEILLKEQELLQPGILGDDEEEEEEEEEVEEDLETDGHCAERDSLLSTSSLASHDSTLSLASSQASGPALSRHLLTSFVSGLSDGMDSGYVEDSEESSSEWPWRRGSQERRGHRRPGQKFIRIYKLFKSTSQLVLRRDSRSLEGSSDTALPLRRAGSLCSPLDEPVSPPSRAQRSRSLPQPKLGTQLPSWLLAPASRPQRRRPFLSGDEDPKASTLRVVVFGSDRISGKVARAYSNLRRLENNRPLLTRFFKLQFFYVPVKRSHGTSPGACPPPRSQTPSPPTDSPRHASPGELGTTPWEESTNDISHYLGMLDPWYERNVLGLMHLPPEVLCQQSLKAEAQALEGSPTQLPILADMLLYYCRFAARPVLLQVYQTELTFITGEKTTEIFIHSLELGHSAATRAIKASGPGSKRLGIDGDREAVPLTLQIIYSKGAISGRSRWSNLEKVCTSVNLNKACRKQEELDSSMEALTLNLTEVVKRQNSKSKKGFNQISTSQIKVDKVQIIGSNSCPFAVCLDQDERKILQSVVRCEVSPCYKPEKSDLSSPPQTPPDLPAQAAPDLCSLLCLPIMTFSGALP
Assay type: biochemical
Method: Spodtera frugiperda cells, grown in ESF921 media, were coinfected with baculovirus expressing a glu-tagged […] and baculovirus expressing an HA-tagged p110γ, at a 3:1 ratio of p101 baculovirus to p110γ baculovirus. Sf9 cells were grown to 1×10^7 total cells/mL in 10 L bioreactors and harvested 48-72 hours post infection. Samples of infected cells were then tested for expression of p101/p110γ PI3 kinase by immunoprecipitation and Western Blot analysis methods (see below).
To purify PI3Kγ, 4 volumes of room temperature hypotonic lysis buffer (1 mM MgCl2, 1 mM DTT, 5 mM EGTA, 1 mM Pefabloc, 0.5 μM aprotinin, 5 μM leupeptin, 2 μM pepstatin, 5 μM E64, pH 8) per gram of cell paste, was poured onto frozen cell pellets with stirring, then lysed in a nitrogen “bomb” at 400 psi (599 HC T316, Parr Instrument Co, Moline, Ill.). NaCl was added to 150 mM, and sodium cholate was added to 1% and mixed for another 45 minutes. The lysates were clarified by centrifugation for 25 minutes at 14,000 rpm. The lysates were then loaded over anti-glu-linked Protein-G Sepaharose beads (Covance Research Products, Richmond, Calif.) using 20 mL resin/50 g cell paste. The column was washed with 15 volumes of wash buffer (1 mM DTT, 0.2 mM EGTA, 1 mM Pefabloc, 0.5 μM aprotinin, 5 μM leupeptin, 2 μM pepstatin, 5 μM E64, 150 mM NaCl, 1% sodium cholate, pH 8). PI3Kγ was eluted with 6 column volumes of wash buffer that contain 100 μg/mL of a peptide that competes for binding of the glu tag. The column fractions with the eluted protein (determined by taking OD280 readings) were collected and dialyzed in 0.2 mM EGTA, 1 mM DTT, 1 mM Pefabloc, 5 μM leupeptin, 0.5% sodium cholate, 150 mM NaCl, and 50% glycerol, pH 8. The fractions were stored at −80° C. until further use.
Spodtera frugiperda cells were coinfected with baculovirus expressing a glu-tagged G protein β1 and baculovirus expressing a G protein β2 at a 1:1 ratio of glu-tagged G protein β1 baculovirus to G protein β2 baculovirus. Sf9 cells are grown in 10 L bioreactors and harvested 48-72 hours post infection. Samples of infected cells were tested for G protein β1/β2 expression by Western Blot analysis, as described below. Cell lysates were homogenized and loaded onto a column of glu-tagged beads as in Biological Example 1 and competed off the column with a glu peptide and processed as described in Biological Example 1.
The inhibitory properties of the compounds in Table 1 were assayed in an in vitro PI3K assay. In a 96-well polypropylene plate, each well was spotted with 2 μL of 50 times the desired final concentration of compound in DMSO. Purified recombinant p101/p110γ protein (0.03 μg; ˜2.7 nM) and G protein β1/γ2 subunits (0.09 μg; ˜57.7 nM) for each reaction was combined in the assay buffer (30 mM HEPES, 100 mM NaCl, 1 mM EGTA, and 1 mM DTT). ATP and [γ-^32P-ATP] (0.09 μCi) were added to this mixture so that the final ATP concentration in the reaction was 20 μM. Lipid micelles were formed by sonicating phosphatidylinositol-4,5-diphosphate (PIP2), phosphatidylethanolamine (PE), and Na-cholate in the assay buffer for 10 minutes, adding MgCl2 and incubating on ice for 20 minutes, for final concentrations of 25 μM PIP2, 300 μM PE, 0.02% Na-cholate, and 10 mM MgCl2 in the reaction. The reactions were started by adding equal volumes lipid and enzyme mixture in a total volume of 50 μL, allowed to run for 20 minutes at room temperature, and stopped with 100 μL 75 mM H3PO4. The lipid product was transferred to a glass fiber filter plate and washed with 75 mM H3PO4 several times. The presence of radioactive lipid product (PIP3) was measured by adding Wallac Optiphase mix to each well and counting in a Wallac 1450 Trilux plate reader (PerkinElmer Life Sciences Inc., Boston, Mass. 02118). The IC50 for each compound tested is reported in μM in Table 1: […]
`COc1cc2c(Oc3ccc(CC(=O)N4CCCCC4)cc3)c(C(=O)Nc3nn[nH]n3)sc2cc1C` [Example B.7, 5-Methoxy-6-methyl-3-[4-(2-oxo-2-piperidin-1-yl-ethyl)-phenoxy]-benzo[b]thiophene-2-carboxylic acid (2H-tetrazol-5-yl)-amide] showed an IC50 of 28 nM.
`COc1cc2c(Oc3ccc(CCC(=O)N4CCCCC4)cc3)c(C(=O)Nc3nn[nH]n3)sc2cc1C` [Example B.8, 5-Methoxy-6-methyl-3-[4-(3-oxo-3-piperidin-1-yl-propyl)-phenoxy]-benzo[b]thiophene-2-carboxylic acid (2H-tetrazol-5-yl)-amide] showed an IC50 of 33 nM.
Work on `COc1cc2c(Oc3cccc(C4CCCCC4)c3)c(C(=O)Nc3nn[nH]n3)sc2cc1C` [Example B.9, 3-(3-Cyclohexyl-phenoxy)-5-methoxy-6-methyl-benzo[b]thiophene-2-carboxylic acid (2H-tetrazol-5-yl)-amide] yielded an IC50 of 63 nM.
`COc1cc2c(Oc3ccc(CCBr)cc3)c(C(=O)Nc3nn[nH]n3)sc2cc1C` [Example B.10, 3-[4-(2-Bromo-ethyl)-phenoxy]-5-methoxy-6-methyl-benzo[b]thiophene-2-carboxylic acid (2H-tetrazol-5-yl)-amide] was tested, and the IC50 was 15 nM.
`COc1cc2c(Oc3ccc4c(c3)CCCC4)c(C(=O)Nc3nn[nH]n3)sc2cc1C` [Example B.11, 5-Methoxy-6-methyl-3-(5,6,7,8-tetrahydro-naphthalen-2yloxy)-benzo[b]thiophene-2-carboxylic acid (2H-tetrazol-5-yl)-amide] gave an IC50 of 86 nM.
`COc1cc2c(Oc3ccc(C(C)C)cc3)c(C(=O)Nc3nn[nH]n3)sc2cc1C` [Example B.12, 3-(4-Isopropyl-phenoxy)-5-methoxy-6-methyl-benzo[b]thiophene-2-carboxylic acid (2H-tetrazol-5-yl)-amide] showed an IC50 of 17 nM.
Work on `CCCCc1ccc(Oc2c(C(=O)Nc3nn[nH]n3)sc3cc(C)c(OC)cc23)cc1` [Example B.13, 3-(4-Butyl-phenoxy)-5-methoxy-6-methyl-benzo[b]thiophene-2-carboxylic acid (2H-tetrazol-5-yl)-amide] yielded an IC50 of 31 nM.
`CCCCCCOc1ccc(Oc2c(C(=O)Nc3nn[nH]n3)sc3cc(C)c(OC)cc23)cc1` [Example B.14, 3-(4-Hexyloxy-phenoxy)-5-methoxy-6-methyl-benzo[b]thiophene-2-carboxylic acid (2H-tetrazol-5-yl)-amide] showed an IC50 of 365 nM.
Work on `COc1cc2c(Oc3ccc(OCc4ccccc4)cc3)c(C(=O)Nc3nn[nH]n3)sc2cc1C` [Example B.15, 3-(4-Benzyloxy-phenoxy)-5-methoxy-6-methyl-benzo[b]thiophene-2-carboxylic acid (2H-tetrazol-5-yl)-amide] yielded an IC50 of 76 nM.
`COc1cc2c(Oc3ccc(OCC4CCCCC4)cc3)c(C(=O)Nc3nn[nH]n3)sc2cc1C` [Example B.16, 3-(4-Cyclohexylmethoxy-phenoxy)-5-methoxy-6-methyl-benzo[b]thiophene-2-carboxylic acid (2H-tetrazol-5-yl)-amide] was tested, and the IC50 was 126 nM.
In the case of `COc1cc2c(Oc3ccc(OC4CCCC4)cc3)c(C(=O)Nc3nn[nH]n3)sc2cc1C` [Example B.17, 3-(4-Cyclopentyloxy-phenoxy)-5-methoxy-6-methyl-benzo[b]thiophene-2-carboxylic acid (2H-tetrazol-5-yl)-amide], the IC50 is reported as 4 nM.
Compound `COc1cc2c(Oc3cccc(C(C)(C)C)c3)c(C(=O)Nc3nn[nH]n3)sc2cc1C` [Example B.18, 3-(3-tert-Butyl-phenoxy)-5-methoxy-6-methyl-benzo[b]thiophene-2-carboxylic acid (2H-tetrazol-5-yl)-amide] has an IC50 of 29 nM.
`COc1cc2c(Oc3ccc(C(C)(C)C)cc3)c(C(=O)Nc3nn[nH]n3)sc2cc1C` [Example B.19, 3-(4-tert-Butyl-phenoxy)-5-methoxy-6-methyl-benzo[b]thiophene-2-carboxylic acid (2H-tetrazol-5-yl)-amide] showed an IC50 of 9 nM.
`COc1cc2c(Oc3ccc(-c4ccccc4)cc3)c(C(=O)Nc3nn[nH]n3)sc2cc1C` [Example B.20, 3-(Biphenyl-4-yloxy)-5-methoxy-6-methyl-benzo[b]thiophene-2-carboxylic acid (2H-tetrazol-5-yl)-amide] showed an IC50 of 77 nM.
Compound `COc1cc2c(Oc3ccc(OC4CCCCCC4)cc3)c(C(=O)Nc3nn[nH]n3)sc2cc1C` [Example B.21, 3-(4-Cycloheptyloxy-phenoxy)-5-methoxy-6-methyl-benzo[b]thiophene-2-carboxylic acid (2H-tetrazol-5-yl)-amide] has an IC50 of 43 nM.
`COc1cc2c(Oc3ccc(OC4CCCCC4)cc3)c(C(=O)Nc3nn[nH]n3)sc2cc1C` [Example B.22, 3-(4-Cyclohexyloxy-phenoxy)-5-methoxy-6-methyl-benzo[b]thiophene-2-carboxylic acid (2H-tetrazol-5-yl)-amide] gave an IC50 of 18 nM.
`COc1cc2c(Oc3ccc(Oc4ccccc4)cc3)c(C(=O)Nc3nn[nH]n3)sc2cc1C` [Example B.24, 5-Methoxy-6-methyl-3-(4-phenoxy-phenoxy)-benzo[b]thiophene-2-carboxylic acid (2H-tetrazol-5-yl)-amide] gave an IC50 of 8 nM.
For `COc1cc2c(Oc3ccc(CCSC(C)(C)C)cc3)c(C(=O)Nc3nn[nH]n3)sc2cc1C` [Example B.25, 3-[4-(2-tert-Butylsulfanyl-ethyl)-phenoxy)-5-methoxy-6-methyl-benzo[b]thiophene-2-carboxylic acid (2H-tetrazol-5-yl)-amide], the IC50 was 25 nM.
`COc1cc2c(Oc3ccc(C4(C)CCCCC4)cc3)c(C(=O)Nc3nn[nH]n3)sc2cc1C` [Example B.26, 5-Methoxy-6-methyl-3-[4-(1-methyl-cyclohexyl)-phenoxy]-benzo[b]thiophene-2-carboxylic acid (2H-tetrazol-5-yl)-amide] showed an IC50 of 67 nM.
Compound `COc1cc2c(Oc3ccc(C4(C)CCC(C)CC4)cc3)c(C(=O)Nc3nn[nH]n3)sc2cc1C` (stereo not drawn) [Example B.27, 3-[4-(1,4-Dimethyl-cyclohexyl)-phenoxy]-5-methoxy-6-methyl-benzo[b]thiophene-2-carboxylic acid (2H-tetrazol-5-yl)-amide] has an IC50 of 125 nM.
`COc1cc2c(Oc3ccc(C4CCCCC4)cc3C)c(C(=O)Nc3nn[nH]n3)sc2cc1C` [Example B.28, 3-(4-Cyclohexyl-2-methyl-phenoxy)-5-methoxy-6-methyl-benzo[b]thiophene-2-carboxylic acid (2H-tetrazol-5-yl)-amide] was tested, and the IC50 was 61 nM.
`COc1cc2c(Oc3ccc(C4CCCCC4)c(C)c3)c(C(=O)Nc3nn[nH]n3)sc2cc1C` [Example B.29, 3-(4-Cyclohexyl-3-methyl-phenoxy)-5-methoxy-6-methyl-benzo[b]thiophene-2-carboxylic acid (2H-tetrazol-5-yl)-amide] showed an IC50 of 275 nM.
For `COc1cc2c(Oc3ccc(C(C)c4ccccc4)cc3)c(C(=O)Nc3nn[nH]n3)sc2cc1C` (stereo not drawn) [Example B.30, 5-Methoxy-6-methyl-3-[4-(1-phenyl-ethyl)-phenoxy]-benzo[b]thiophene-2-carboxylic acid (2H-tetrazol-5-yl)-amide], the IC50 was 29 nM.
`COc1cc2c(Oc3ccc(N4CCCCC4)cc3)c(C(=O)Nc3nn[nH]n3)sc2cc1C` [Example B.31, 5-Methoxy-6-methyl-3-(4-piperidin-1-yl-phenoxy)-benzo[b]thiophene-2-carboxylic acid (2H-tetrazol-5-yl)-amide] showed an IC50 of 87 nM.

Source: patent publication US20040259926A1, “3-Aryloxy and 3-heteroaryloxy substituted benzo[b]thiophenes as therapeutic agents” (priority 2003, published 2004)
